Measured values from the supplement of paper PMC10307832.

How the values were obtained:
Assay in all cases: relative viability (nuclei count vs DMSO), 5 days (fraction); higher = more cells survive
NCI-H1792 = system: NCI-H1792
Procedure, shortened: (§1)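 Lung cancer cell lines, seeded in 1536-well plates, were treated the following day by pin tool with a single drug or with five library-drug doses (not always all listed) in √10 steps on top of a fixed anchor-drug dose. Cells were fixed and nuclei stained in one step after 5 days, and nuclei were counted. Relative viability is the nuclei count for treated wells divided by that for vehicle wells, reported as medians of duplicate plates.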

NCI-H2009 = system: NCI-H2009
Procedure, shortened: as §1

NCI-H23 = system: NCI-H23
Procedure, shortened: as §1

CAL-12T = system: CAL-12T
Procedure, shortened: as §1

LU99A = system: LU99A
Procedure, shortened: as §1

SK-MES-1 = system: SK-MES-1
Procedure, shortened: as §1

HCC-827 = system: HCC-827
Procedure, shortened: as §1

PC-3 [JPC-3] = system: PC-3 [JPC-3]
Procedure, shortened: as §1

NCI-H1651 = system: NCI-H1651
Procedure, shortened: as §1

NCI-H2170 = system: NCI-H2170
Procedure, shortened: as §1

HARA = system: HARA
Procedure, shortened: as §1

UMC-11 = system: UMC-11
Procedure, shortened: as §1

HCC-15 = system: HCC-15
Procedure, shortened: as §1

LCLC-97TM1 = system: LCLC-97TM1
Procedure, shortened: as §1

NCI-H1395 = system: NCI-H1395
Procedure, shortened: as §1

COR-L 105 = system: COR-L 105
Procedure, shortened: as §1

NCI-H2405 = system: NCI-H2405
Procedure, shortened: as §1

H3255 = system: H3255
Procedure, shortened: as §1

NCI-H2087 = system: NCI-H2087
Procedure, shortened: as §1

NCI-H2228 = system: NCI-H2228
Procedure, shortened: as §1

201T = system: 201T
Procedure, shortened: as §1

`C=C1C(=O)O[C@@H](CCCCCCCC)[C@@H]1C(=O)O` [C-75] + CC1(C)CCC(c2ccc(Cl)cc2)=C(CN2CCN(c3ccc(C(=O)NS(=O)(=O)c4ccc(N[C@H](CCN5CCOCC5)CSc5ccccc5)c(S(=O)(=O)C(F)(F)F)c4)cc3)CC2)C1 [Navitoclax] (partner 0.5 µM) showed a relative viability (NCI-H1792; first compound 0.08 µM) of 0.595, a relative viability (NCI-H1792; first compound 0.253 µM) of 0.575 and a relative viability (NCI-H1792; first compound 0.8 µM) of 0.46. For the same molecule, the relative viability (NCI-H1792; first compound 2.53 µM) was 0.303, the relative viability (NCI-H1792; first compound 8 µM) was 0.59 and the relative viability (NCI-H2009; first compound 0.08 µM) was 1.16. The relative viability (NCI-H2009; first compound 0.253 µM) was 1.08, the relative viability (NCI-H2009; first compound 0.8 µM) was 1.1 and the relative viability (NCI-H2009; first compound 2.53 µM) was 0.971. For the same molecule, the relative viability (NCI-H2009; first compound 8 µM) was 0.946, the relative viability (NCI-H23; first compound 0.08 µM) was 0.801 and the relative viability (NCI-H23; first compound 0.253 µM) was 1.01. The relative viability (NCI-H23; first compound 0.8 µM) was 0.666, the relative viability (NCI-H23; first compound 2.53 µM) was 0.672 and the relative viability (NCI-H23; first compound 8 µM) was 0.717. It also gave a relative viability (CAL-12T; first compound 0.08 µM) of 1.47, a relative viability (CAL-12T; first compound 0.253 µM) of 1.44 and a relative viability (CAL-12T; first compound 0.8 µM) of 1.17. For the same molecule, the relative viability (CAL-12T; first compound 8 µM) was 1.08, the relative viability (LU99A; first compound 0.08 µM) was 0.795 and the relative viability (LU99A; first compound 0.253 µM) was 0.845. For the same molecule, the relative viability (LU99A; first compound 0.8 µM) was 0.695, the relative viability (LU99A; first compound 2.53 µM) was 0.588 and the relative viability (LU99A; first compound 8 µM) was 0.594. It also gave a relative viability (SK-MES-1; first compound 0.08 µM) of 1.31, a relative viability (SK-MES-1; first compound 0.253 µM) of 1.23 and a relative viability (SK-MES-1; first compound 0.8 µM) of 1.16. It also gave a relative viability (SK-MES-1; first compound 2.53 µM) of 1.21, a relative viability (SK-MES-1; first compound 8 µM) of 1.17 and a relative viability (HCC-827; first compound 0.08 µM) of 1.02. It also gave a relative viability (HCC-827; first compound 0.253 µM) of 0.884, a relative viability (HCC-827; first compound 0.8 µM) of 0.952 and a relative viability (HCC-827; first compound 2.53 µM) of 0.985. The relative viability (HCC-827; first compound 8 µM) was 1.04, the relative viability (PC-3 [JPC-3]; first compound 0.08 µM) was 0.853 and the relative viability (PC-3 [JPC-3]; first compound 0.253 µM) was 0.841. It also gave a relative viability (PC-3 [JPC-3]; first compound 0.8 µM) of 0.841, a relative viability (PC-3 [JPC-3]; first compound 2.53 µM) of 0.826 and a relative viability (PC-3 [JPC-3]; first compound 8 µM) of 0.874. It also gave a relative viability (NCI-H1651; first compound 0.08 µM) of 1.07, a relative viability (NCI-H1651; first compound 0.253 µM) of 1.11 and a relative viability (NCI-H1651; first compound 0.8 µM) of 0.955. It also gave a relative viability (NCI-H1651; first compound 2.53 µM) of 0.885, a relative viability (NCI-H1651; first compound 8 µM) of 0.901 and a relative viability (NCI-H2170; first compound 0.08 µM) of 0.71. It also gave a relative viability (NCI-H2170; first compound 0.253 µM) of 0.641, a relative viability (NCI-H2170; first compound 0.8 µM) of 0.556 and a relative viability (NCI-H2170; first compound 2.53 µM) of 0.525. For the same molecule, the relative viability (NCI-H2170; first compound 8 µM) was 0.586, the relative viability (HARA; first compound 0.08 µM) was 1.07 and the relative viability (HARA; first compound 0.253 µM) was 1.26. For the same molecule, the relative viability (HARA; first compound 0.8 µM) was 1.12, the relative viability (HARA; first compound 8 µM) was 1.14 and the relative viability (UMC-11; first compound 0.08 µM) was 0.3. It also gave a relative viability (UMC-11; first compound 0.253 µM) of 0.299, a relative viability (UMC-11; first compound 0.8 µM) of 0.292 and a relative viability (UMC-11; first compound 2.53 µM) of 0.287. The relative viability (UMC-11; first compound 8 µM) was 0.239, the relative viability (HCC-15; first compound 0.08 µM) was 0.692 and the relative viability (HCC-15; first compound 0.253 µM) was 0.725. The relative viability (HCC-15; first compound 0.8 µM) was 0.686, the relative viability (HCC-15; first compound 2.53 µM) was 0.59 and the relative viability (HCC-15; first compound 8 µM) was 0.733. For the same molecule, the relative viability (LCLC-97TM1; first compound 0.08 µM) was 0.36, the relative viability (LCLC-97TM1; first compound 0.253 µM) was 0.697 and the relative viability (LCLC-97TM1; first compound 0.8 µM) was 0.357. The relative viability (LCLC-97TM1; first compound 2.53 µM) was 0.304, the relative viability (LCLC-97TM1; first compound 8 µM) was 0.292 and the relative viability (NCI-H1395; first compound 0.08 µM) was 1.13. The relative viability (NCI-H1395; first compound 0.253 µM) was 1.24, the relative viability (NCI-H1395; first compound 0.8 µM) was 0.989 and the relative viability (NCI-H1395; first compound 2.53 µM) was 0.813. It also gave a relative viability (NCI-H1395; first compound 8 µM) of 1.26, a relative viability (COR-L 105; first compound 0.08 µM) of 0.81 and a relative viability (COR-L 105; first compound 0.253 µM) of 0.828. For the same molecule, the relative viability (COR-L 105; first compound 0.8 µM) was 0.573, the relative viability (COR-L 105; first compound 2.53 µM) was 0.788 and the relative viability (COR-L 105; first compound 8 µM) was 0.562. It also gave a relative viability (NCI-H2405; first compound 0.08 µM) of 0.93, a relative viability (NCI-H2405; first compound 0.253 µM) of 0.633 and a relative viability (NCI-H2405; first compound 0.8 µM) of 0.863. It also gave a relative viability (NCI-H2405; first compound 2.53 µM) of 0.83, a relative viability (NCI-H2405; first compound 8 µM) of 0.802 and a relative viability (H3255; first compound 0.08 µM) of 0.565. The relative viability (H3255; first compound 0.253 µM) was 0.5, the relative viability (H3255; first compound 0.8 µM) was 0.513 and the relative viability (H3255; first compound 2.53 µM) was 0.466. For the same molecule, the relative viability (H3255; first compound 8 µM) was 0.577, the relative viability (NCI-H2087; first compound 0.08 µM) was 1.02 and the relative viability (NCI-H2087; first compound 0.253 µM) was 1.05. The relative viability (NCI-H2087; first compound 0.8 µM) was 0.934, the relative viability (NCI-H2087; first compound 2.53 µM) was 0.927 and the relative viability (NCI-H2087; first compound 8 µM) was 0.87. The relative viability (NCI-H2228; first compound 0.08 µM) was 1.04, the relative viability (NCI-H2228; first compound 0.253 µM) was 1.21 and the relative viability (NCI-H2228; first compound 0.8 µM) was 0.707. It also gave a relative viability (NCI-H2228; first compound 2.53 µM) of 0.973, a relative viability (NCI-H2228; first compound 8 µM) of 0.75 and a relative viability (201T; first compound 0.08 µM) of 1.23. It also gave a relative viability (201T; first compound 0.253 µM) of 1.27, a relative viability (201T; first compound 0.8 µM) of 1.23 and a relative viability (201T; first compound 2.53 µM) of 1.17. The relative viability (201T; first compound 8 µM) was 1.21.
